In patent US10857105B2, “Compounds and compositions for intracellular delivery of therapeutic agents” (ModernaTX, Inc., priority 2017, dated 2020):

Experiments:
[1] = Particle size and polydispersity index of nanoparticle compositions (Zetasizer Nano ZS); format: physicochemical
In short: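 Formulations of ionizable lipid, DSPC, cholesterol and PEG-DMG (50:10:38.5:1.5 mol %) carrying Luc or hEPO mRNA with all uridines as N1-methyl pseudouridine. Dynamic light scattering in 1×PBS gave particle size and polydispersity; zeta potential read in 15 mM PBS.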

[2] = Encapsulation efficiency of RNA in nanoparticle compositions (RIBOGREEN assay); format: physicochemical
In short: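 Lipid nanoparticles (ionisable lipid:DSPC:cholesterol:PEG-DMG 50:10:38.5:1.5 mol %) carrying N1-methylpseudouridine luciferase or hEPO mRNA diluted to about 5 μg/mL in TE, pH 7.5, with or without 2% Triton X-100, 15 min at 37° C. RiboGreen fluorescence (ex ~480, em ~520 nm) blank-subtracted; free RNA = intact/disrupted signal.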

luciferase (Luc) mRNA [3] = assay: Luciferase expression after intramuscular administration to mice; format: in vivo; settings: for Novel lipid/MC3 expression ratio, i.m. Luc / Total flux 6 hours after intramuscular administration, 0.01 mpk Dose: intramuscular; for Novel lipid/MC3 expression ratio, i.m. Luc: 6 hr. time point, relative to MC3 formulation; for Total flux 6 hours after intramuscular administration, 0.01 mpk Dose: Luc mRNA
Text: The numbers 1-7 in this figure correspond to MC3, Compounds 168-170, and 173-175 respectively.
FIGS. 18A and 18B show the results of luciferase expression measured upon intramuscular administration of various nanoparticle compositions to CD-1 mice at 0.01 mpk. FIG. 18A is a bar graph showing total flux at 6 hr after administration. The numbers above each bar indicate the expression ratio relative to MC3. […] Numbers 1-11 in the Figures refer to compositions containing the following: 1: MC3, 2: Compound 143, 3: Compound 49; 4: Compound 113; 5: Compound 61; 6: Compound 72; 7: Compound 75; 8: Compound 71; 9: Compound 128; 10: Compound 156; 11: Compound 157.
The numbers 1-9 in this figure correspond to MC3, and Compounds 178, 181, 182, 218, 198, 200, 233, and 239, respectively.
The total flux (measured by area under the curve, AUC) induced by administration of a formulation including a given lipid relative to that induced by administration of a formulation including MC3 was also measured for several lipids.
Sample formulations including modified luciferase (Luc) mRNA prepared and administered intramuscularly and the resulting expression and immunogenicity were evaluated simultaneously. Formulations including compounds according to Formula (I), (IA), (IB), (II), (IIa), (IIb), (IIc), (IId), (IIe), (IIf), (IIg), or (III) were prepared and administered at dose of and 0.01 mpk.

hEPO mRNA = assay: hEPO expression after intravenous administration to rats; format: in vivo, rat; settings: Table 19B; for [hEPO] Lipid/MC3: ratio to MC3
Experimental: The expression of hEPO and cytokine induction in rats intravenously administered a nanoparticle composition at a dose of 2.0 mpk was measured at 6 h.
The expression of hEPO in rats intravenously administered a nanoparticle composition at a dose of 0.2 mpk or 2.0 mpk was measured at 6 hours. Table 16 summarize the ratio of hEPO expression levels using various nanoparticle compositions as compared to the hEPO expression level using MC3 formulation and the lipid levels in the liver measured 48 hours after administration, as described above. Tables 17 and 18 summarize the lipid levels in the liver and spleen measured 48 hours after administration of Compounds 28, 33, 53, and 54. Liver and spleen levels represent the average values calculated for 3 rats in each group. As is shown in Tables 17 and 18, less than 10% of Compounds 28, 33, 53, and 54 remained in the liver after 48 hours, while greater than 60% of MC3 remained.
Table 19A summarizes the hEPO expression, IP-10 induction, liver and spleen levels, and alanine aminotransferase (ALT) and aspartate aminotransferase (AST) measured upon intravenous administration of formulations including Compounds 48, 49, and 50 to rat at 0.2 and 2 mpk and hEPO mRNA. hEPO concentrations were measured 6 hours after administration, while cytokine induction and liver and spleen levels were measured 48 hours after administration. hEPO and IP-10 concentrations are presented in pg/ml, while liver levels are provided in ng/g. ALT and AST levels are presented in international units.
The expression of hEPO induced by intravenous administration to rats of nanoparticle compositions at various doses was measured at 2, 4, 6, 8, 24, and 48 hour time points. FIGS. 3-6 respectively summarize the hEPO expression measured upon intravenous administration of formulations including Compounds 26, 18, 25, and MC3 to rat at various doses. The lipid levels of Compound 26 in the liver after 48 hours were about 19%.
The expression of hEPO and lipid levels in the liver and spleen in rats intravenously administered a nanoparticle composition at a dose of 0.2 mpk was measured at various time points. Compounds 18 and 25 were selected for comparison with MC3. Lipids were formulated according to the standard MC3 formulation described above. Rats were administered intravenously a single 0.2 mpk dose and expression monitored at 0.25, 0.5, 1, 2, 4, 8, 24, and 48 hours after administration.

modified luciferase = assay: Luciferase expression in liver, lung, spleen and femur 6 hours after intravenous administration to mice; format: in vivo; settings: 6 hours after intravenous 0.5 mpk, mice
In short: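 Mice (n=3) got a single 0.5 mpk IV dose of each nanoparticle composition, with MC3 and PBS controls alongside. Organ luminescence flux was read 6 h post-dose.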

luciferase (Luc) mRNA [4] = assay: Luciferase expression (whole body bioluminescence) after intravenous administration to mice; format: in vivo; settings: intravenous, luciferase, 6 hr. time point, relative to MC3 formulation
In short: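 Luc mRNA nanoparticles were given IV at 0.5 mg/kg to groups of six mice, and whole-body bioluminescent flux was imaged 3, 6 and 24 h post-dose. Flux AUC for each lipid formulation was reported as a ratio to the MC3 reference formulation.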

[5] = Table 1A, lipid:DSPC:cholesterol:PEG-DMG 50:10:38.5:1.5 mol %
[6] = Table 1B, formulated with hEPO mRNA
[7] = Table 1D, compositions for subcutaneous administration, # formulated with hEPO mRNA
[8] = Table 1E, compositions for subcutaneous administration

| Compound | Size [1, 5] [nm] | Size [1, 6] [nm] | EE [2, 6] [%] | Total flux 6 hours after intramuscular administration, 0.01 mpk Dose (luciferase (Luc) mRNA [3]) [p/s] | Total Flux, Liver (modified luciferase) | Total Flux, Lung (modified luciferase) | Total Flux, Spleen (modified luciferase) | further results |
| --- | --- | --- | --- | --- | --- | --- | --- | --- |
| CCCC/C=C\CCC(CC/C=C\CCCC)OC(=O)CCCCCCCN(CCO)CCCCCCCC(=O)OCCCCCCCCC [Compound 60, (5Z,12Z)-Heptadeca-5,12-dien-9-yl 8-((2-hydroxyethyl)(8-(nonyloxy)-8-oxooctyl)amino)octanoate] | 95.1 | 88.9 | 95.20 | 9.48E+07 | 1.54E+09 | 6.25E+06 | 7.12E+06 | Size [1, 7]: 87.4 nm; Size [1, 8]: 93.3 nm |
| CCCCCCCCCOC(=O)CCCCCCCN(CCCN)CCCCCCCC(=O)OC(CCCCCCCC)CCCCCCCC [Compound 121, Heptadecan-9-yl 8-((3-aminopropyl)(8-(nonyloxy)-8-oxooctyl)amino)octanoate] | – | – | – | 1.06E+06 | – | – | – | – |
| CCCCCCCCC(C)OC(=O)CCCCCN(CCO)CCCCCCCC(=O)OC(CCCCCCCC)CCCCCCCC (centres unmarked) [Compound 122, Heptadecan-9-yl 8-((6-(decan-2-yloxy)-6-oxohexyl)(2-hydroxyethyl)amino)octanoate] | 69.3 | 70.2 | 96.27 | 9.19E+07 | 2.63E+09 | 2.77E+07 | 1.56E+07 | Size ([1]; Table 1C, compositions for subcutaneous administration): 80.2 nm |
| CCCCCCCCCOC(=O)CCCCCCCN(CCCCCCCC(=O)OC(CCCCCCCC)CCCCCCCC)CCCn1ccc(=O)[nH]c1=O [Compound 114, Heptadecan-9-yl 8-((3-(2,4-dioxo-3,4-dihydropyrimidin-1(2H)-yl)propyl)(8-(nonyloxy)-8-oxooctyl)amino)octanoate] | 65.1 | – | – | 3.31E+06 | – | – | – | – |
| CCCCCCCCCOC(=O)CCCCCCCN(C)CCCCCCCC(=O)OC(CCCCCCCC)CCCCCCCC [Compound 123, Heptadecan-9-yl 8-(methyl(8-(nonyloxy)-8-oxooctyl)amino)octanoate] | – | – | – | 1.08E+07 | 2.50E+08 | 1.78E+06 | 4.04E+06 | – |
| CCCCCCCCCOC(=O)CCCCCCCN(CCCCCCCC(=O)OC(CCCCCCCC)CCCCCCCC)CCCNC(=S)N(C)C [Compound 111, Heptadecan-9-yl 8-((3-(3,3-dimethylthioureido)propyl)(8-(nonyloxy)-8-oxooctyl)amino)octanoate] | 116.7 | 93.3 | 91.23 | 1.58E+08 | 4.83E+09 | 2.57E+07 | 2.44E+08 | Size [1, 7]: 94.5 nm; Size [1, 8]: 88.9 nm |
| CCCC/C=C\CCC(CC/C=C\CCCC)OC(=O)CCCCCCCN(CCO)CCCCCC(=O)OCCCCCCCCCCC [Compound 61, (5Z,12Z)-heptadeca-5,12-dien-9-yl 8-((2-hydroxyethyl)(6-oxo-6-(undecyloxy)hexyl)amino)octanoate] | 82.1 | – | – | – | 6.37E+08 | 3.56E+06 | 1.61E+07 | Size [1, 8]: 80.0 nm; AUC (luciferase (Luc) mRNA [3]; luciferase, intramuscular administration (Table 3H)): 2.30E+09 p/s*h |

Now from value to molecule, other results behind:

| Size [1, 5] [nm] | Size [1, 6] [nm] | EE [2, 6] [%] | Compound | Total flux 6 hours after intramuscular administration, 0.01 mpk Dose (luciferase (Luc) mRNA [3]) [p/s] | Total Flux, Liver (modified luciferase) | Total Flux, Lung (modified luciferase) | Total Flux, Spleen (modified luciferase) | further results |
| --- | --- | --- | --- | --- | --- | --- | --- | --- |
| 66.9 | 93.7 | 97.6 | CCCCCCCCCOC(=O)CCCCCCCN(CCCCCCCC(=O)OC(CCCCCCCC)CCCCCCCC)CCCN/C(=N/S(C)(=O)=O)N(C)C [Compound 233, Heptadecan-9-yl (Z)-8-((3-(3,3-dimethyl-2-(methylsulfonyl)guanidino)propyl)(8-(nonyloxy)-8-oxooctyl)amino)octanoate] | – | – | – | – | Size [1, 7]: 87.0 nm; EE [2, 5]: 97.81%; Novel lipid/MC3 expression ratio, i.m. Luc (luciferase (Luc) mRNA [3]; luciferase): 0.05 |
| – | 150.3 | 76.3 | CCCCCCCCCOC(=O)CCCCCCCN(CCO)CCCCCC(=O)OC1CCC(CCCCC)CC1 (centres unmarked) [Compound 232, Nonyl 8-((2-hydroxyethyl)(6-oxo-6-((4-pentylcyclohexyl)oxy)hexyl)amino)octanoate] | – | – | – | – | [hEPO] Lipid/MC3 (hEPO mRNA): 0.83 |
| – | 95.5 | 93.9 | CCCCCCCCC(CCCCCCCC)OC(=O)CCCCCCCN(CCO)CCCCCCCCCC(=O)OCCCCCCC [Compound 189, Heptyl 10-((8-(heptadecan-9-yloxy)-8-oxooctyl)(2-hydroxyethyl)amino)decanoate] | – | – | – | – | [hEPO] Lipid/MC3 (hEPO mRNA): 3.01E+06 |
| 87.4 | – | – | CCCCCCCCCOC(=O)CCCCCCCN(CCCCCCCC(=O)OC(CCCCCCCC)CCCCCCCC)CCCNc1c(N(C)C)c(=O)c1=O [Compound 169, Heptadecan-9-yl 8-((3-((2-(dimethylamino)-3,4-dioxocyclobut-1-en-1-yl)amino)propyl)(8-(nonyloxy)-8-oxooctyl)amino)octanoate] | – | – | – | – | Novel lipid/MC3 expression ratio, i.v. (luciferase (Luc) mRNA [4]): 0.11; Novel lipid/MC3 expression ratio, i.m. Luc (luciferase (Luc) mRNA [3]; luciferase): 3.3 |
| 104.1 | – | – | CCCCCCCCC(CCCCCCCC)OC(=O)CCCCCCCN(CCO)CCCCCC(=O)OC(CCCCCCCC)C1CC1 (centres unmarked) [Compound 128, Heptadecan-9-yl 8-((6-((1-cyclopropylnonyl)oxy)-6-oxohexyl)(2-hydroxyethyl)amino)octanoate] | – | 5.98E+09 | 2.16E+07 | 7.09E+07 | Size [1, 8]: 73.9 nm; Novel lipid/MC3 expression ratio, i.m. Luc (luciferase (Luc) mRNA [3]; luciferase): 0.99 |
| 55.8 | 71.3 | 82.6 | CCCCCCCCCOC(=O)CCCCCCCN(CCCCCCCC(=O)OC(CCCCCCCC)CCCCCCCC)CCCC(=O)NC [Compound 239, Heptadecan-9-yl 8-((4-(methylamino)-4-oxobutyl)(8-(nonyloxy)-8-oxooctyl)amino)octanoate] | – | – | – | – | EE [2, 5]: 90.42%; Novel lipid/MC3 expression ratio, i.m. Luc (luciferase (Luc) mRNA [3]; luciferase): 0.01 |
| 76.2 | 95.3 | 97.3 | CCCCCCCCCOC(=O)CCCCCCCN(CCCCCCCC(=O)OC(CCCCCCCC)CCCCCCCC)CCCN/C(=N/[N+](=O)[O-])NC [Compound 200, Heptadecan-9-yl (E)-8-((3-(3-methyl-2-nitroguanidino)propyl)(8-(nonyloxy)-8-oxooctyl)amino)octanoate] | – | – | – | – | EE [2, 5]: 97.65%; hEPO AUC (hEPO mRNA): 2.4e+07 pg·h/mL; [hEPO] Lipid/MC3 (hEPO mRNA): 1.72E+06 |
